Reference: ChEMBL document CHEMBL5543096 (J Med Chem, 2024)
The source made the active and inactive calls. The rule behind the calls is not given here.

Assays:
Mus musculus [1] = assay: Antidepressant activity in Reserpine-induced depressive ICR mouse model assessed as reduction in weight loss at 25 to 300 microg/kg,ip administrated on day 4 to 8 for 5 days; format: functional, organism-based; settings: dose 25-300 µg/kg, time 5.0 day
Mus musculus [2] = assay: Antidepressant activity in chronic restraint stress-induced depressive C57BL/6J mouse model assessed as reduction in immobility time at 100 to 300 microg/kg,ip administrated on day 29 to 33 measured on day 35 by forced swimming test; format: functional, organism-based; settings: dose 100-300 µg/kg, time 7.0 day
Mus musculus [3] = assay: Antidepressant activity in Reserpine-induced depressive C57BL/6J mouse model assessed as decrease in immobility time at 0.1 to 1 mg/kg,ip administration measured after 30 mins by tail suspension test; format: functional, organism-based; settings: dose 0.1-1 mg/kg
[4] = Tmax in Sprague-Dawley rat at 0.3 mg/kg,iv measured at 0.05 to 24 hrs of post administration by LC-MS/MS analysis; format: ADME, organism-based; settings: in vivo, time 0.05-24 hrs
[5] = Tmax in Sprague-Dawley rat at 0.3 mg/kg,ip measured at 0.05 to 24 hrs of post administration by LC-MS/MS analysis; format: ADME, organism-based; settings: in vivo, time 0.05-24 hrs
[6] = AUC (0 to last) in Sprague-Dawley rat at 0.3 mg/kg,ip measured at 0.05 to 24 hrs of post administration by LC-MS/MS analysis; format: ADME, organism-based; settings: in vivo, time 0.05-24 hrs
[7] = Bioavailability in Sprague-Dawley rat at 0.3 mg/kg,ip measured at 0.05 to 24 hrs of post administration by LC-MS/MS analysis; format: ADME, organism-based; settings: in vivo, time 0.05-24 hrs
Mus musculus [8] = assay: Antidepressant activity in chronic restraint stress-induced depressive C57BL/6J mouse model assessed as change in total distance traveled at 25 to 300 microg/kg,ip administrated on day 29 to 33 measured on day 34 by open field test; format: functional, organism-based; settings: dose 25-300 µg/kg, time 6.0 day
[9] = Toxicity in chronic restraint stress-induced depressive C57BL/6J mouse model assessed as kidney pathological change at 25 to 300 microg/kg,ip administrated on day 29 to 33 measured on day 36 by hematoxylin and eosin staining based microscopic analysis; format: tissue-based; settings: in vivo, 192 h, dose 25-300 µg/kg, time 8 day
[10] = Toxicity in chronic restraint stress-induced depressive C57BL/6J mouse model assessed as decrease in percentage of spontaneous alternation at 4 mg/kg,ip administration by Y-maze test; format: organism-based; settings: in vivo
[11] = Toxicity in chronic restraint stress-induced depressive C57BL/6J mouse model assessed as memory impairment at 4 mg/kg,ip administration and measured after 4 hrs by novel object recognition test; format: organism-based; settings: in vivo
[12] = biological target: T1, Muscarinic acetylcholine receptor M1 (Homo sapiens, UniProt P11229); assay: Binding affinity to human N-terminal eGFP-tagged CHRM1 expressed in HEK293T cells assessed as dissociation constant incubated for 10 mins by microscale thermophoresis assay; format: cell-based
T1 sequence (P11229 whole entry): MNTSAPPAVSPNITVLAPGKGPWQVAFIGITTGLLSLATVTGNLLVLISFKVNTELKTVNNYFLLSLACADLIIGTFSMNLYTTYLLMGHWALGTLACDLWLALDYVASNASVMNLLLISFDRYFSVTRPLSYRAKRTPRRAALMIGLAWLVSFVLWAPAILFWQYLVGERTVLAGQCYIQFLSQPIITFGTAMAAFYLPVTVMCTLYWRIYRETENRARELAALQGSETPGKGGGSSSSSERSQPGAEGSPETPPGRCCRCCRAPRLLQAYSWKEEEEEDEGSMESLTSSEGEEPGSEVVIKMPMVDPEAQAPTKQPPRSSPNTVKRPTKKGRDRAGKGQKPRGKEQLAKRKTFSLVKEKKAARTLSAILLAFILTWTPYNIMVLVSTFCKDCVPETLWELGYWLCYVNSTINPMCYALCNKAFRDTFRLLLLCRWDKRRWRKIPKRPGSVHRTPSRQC

## CN1[C@@H]2C[C@@H](OC(=O)[C@@](F)(CO)c3ccccc3)C[C@H]1[C@@H]1O[C@@H]12
Mus musculus [1]
  Activity: Active
Mus musculus [2]
  Activity: Active
Mus musculus [3]
  Activity: Active
[4]
  Tmax: 3 min
[5]
  Tmax: 12.5 min
[6]
  AUC(0-t): 24.2 ng·h/mL
[7]
  bioavailability: 35.5%
Mus musculus [8]
  Activity: inactive
[9]
  Activity: Non-Toxic
[10]
  Activity: Toxic
[11]
  Activity: Toxic
[12]
  Kd: 336 µM
